Laboratory results taken from patent publication US20120208851A1, “FORMULATIONS” (NEUROSYSTEC CORPORATION, priority 2008, published 2012).

Columns and labels:
[1] = Solubility of gacyclidine base in squalene; type: physicochemical
Experimental: Squalene was added to 1 gram of gacyclidine free base in 1 milliliter aliquots until the gacyclidine base went into solution. The minimum amount of squalene required to dissolve 1 gram of gacyclidine base was 9 milliliters. A suspension of gacyclidine-containing squalene was prepared by adding 4.3 milliliters of the gacyclidine solution in squalene (1 gram gacyclidine base dissolved in 9 milliliters squalene), 0.5 milliliters of polysorbate 80, 0.5 milliliters of sorbitan trioleate, 35 milligrams of dipotassium phosphate, 1 milligram of citric acid, and 877 milligrams of sodium chloride to a graduated cylinder and bringing the mixture to a final volume of 100 milliliters with water. The suspension of squalene-gacyclidine in phosphate buffered saline was passed through a Microfluidics M-110S high pressure homogenizer equipped with a G10Z 87 micrometer ceramic interaction chamber at 23,000 pounds per square inch. After 7 passes through the homogenizer with the interaction chamber maintained in an ice bath, the average particle diameter of the squalene-gacyclidine emulsion was determined to be 135 nanometers by use of a Horiba LB-550 dynamic light scattering particle size analyzer. After 7 additional passes of the emulsion through the homogenizer with the interaction chamber maintained in an ice bath, the average particle diameter was determined to be 122 nanometers. After 7 additional passes of the emulsion through the homogenizer with the interaction chamber maintained in an ice bath, the average particle diameter was determined to be 114 nanometers. After 7 additional passes of the emulsion through the homogenizer with the interaction chamber maintained in an ice bath, the average particle diameter was determined to be 112 nanometers. Extensive analysis of the squalene-gacyclidine emulsion determined that the average particle diameter was between 107 to 123 nanometers. The pH and osmolality of the squalene-gacyclidine emulsion were determined to be 7.6 and 279 milliosmolal, respectively.

[2] = Binding of gacyclidine by PLGA nanoparticles (gacyclidine in suspension by HPLC); type: physicochemical
Text: Water (pH 7.2) was mixed with acetone solutions containing 2 grams/liter 5050 DLG 3E (PLGA, Lakeshore Biomaterials, solution A) or a solution of 2 grams/liter 5050 DLG 3E and 2 grams/liter gacyclidine base (solution B) or a solution of 2 grams/liter gacyclidine base (solution C). Rapid mixing was accomplished by pumping water into a T-mixer at 5 milliliters/minute and solution A, B, or C into the same T-mixer at 1 milliliter/minute.
Acetone was eliminated from the suspension of particles prepared by mixing water with solution B by stirring the suspension in an open beaker for three days. The particle suspension was then passed through a 0.2 micrometer polyethersulfone syringe filter (VWR International) to eliminate larger particles. […] These nanoparticles were then concentrated by pressure dialysis with a 10,000 MWCO cellulose membrane (Amicon) to a final volume of 17 milliliters. The average particle diameter in the concentrated suspension was determined to be 53 nanometers by dynamic light scattering.
To determine the gacyclidine concentration in the nanoparticle suspension, an aliquot (20 to 50 microliters) was diluted with 10 millimolar hydrochloric acid to a final volume of 1.8 milliliter and then analyzed by high-performance liquid chromatography. Gacyclidine in the concentrated suspension was determined to be 0.68 millimolar (0.18 grams/liter; 3.1 milligrams gacyclidine base; 8% of the initial gacyclidine). When this suspension was passed through a 0.2 micrometer polyethersulfone syringe filter (VWR International) it further reduced the concentration of gacyclidine to 0.23 millimolar (0.06 grams/liter; 1.0 milligrams gacyclidine base; 2.5% of the initial gacyclidine). […] After filtration of the pH 9.1 nanoparticle suspension through a 0.2 micrometer polyethersulfone syringe filter (VWR International) the concentration of particles was not reduced, based on light scattering intensity, nor was the average diameter of particles (58 nanometers, post-filtration) substantially altered. However, the concentration of gacyclidine present in the nanoparticle suspension, after adjusting the pH to 9.1 and passage through a 0.2 micrometer filter, was reduced to approximately 0.02 millimolar (0.005 grams/liter; 0.09 milligrams gacyclidine base; 0.2% of the initial gacyclidine). […] Very little of the gacyclidine in the initial nanoparticle preparation was bound to the PLGA nanoparticles, but was instead dissolved in the aqueous phase surrounding the particles.

[3] = concentrated PLGA suspension passed through 0.2 micrometer polyethersulfone syringe filter
[4] = pH 9.1, passage through 0.2 micrometer filter

CNC1(c2ccccc2Cl)CCCCC1=O (stereo not shown) [ketamine]
limit of solubility in the squalene phase [1]: similar

CC1CCCCC1(c1cccs1)N1CCCCC1 (stereo not shown) [gacyclidine]
limit of solubility in the squalene phase [1]: 1 gram of gacyclidine for every 9 milliliters of squalene
minimum amount of squalene required to dissolve 1 gram of gacyclidine base ([1]; squalene added in 1 milliliter aliquots): 9 milliliters
% of the initial gacyclidine in the concentrated suspension ([2]; PLGA+gacyclidine nanoparticles after 0.2 micrometer filtration and pressure dialysis concentration): 8%
Gacyclidine in the concentrated suspension ([2]; PLGA+gacyclidine nanoparticles after 0.2 micrometer filtration and pressure dialysis concentration, HPLC): 0.68 millimolar
affinity for PLGA ([2]; based on final amount of gacyclidine remaining associated with PLGA nanoparticles): does not have a high affinity for PLGA
% of the initial gacyclidine after passing concentrated suspension through 0.2 micrometer filter [2, 3]: 2.5%
concentration of gacyclidine after passing concentrated suspension through 0.2 micrometer filter [2, 3]: 0.23 millimolar
% of the initial gacyclidine after adjusting pH to 9.1 and filtration [2, 4]: 0.2%
concentration of gacyclidine in the nanoparticle suspension after adjusting pH to 9.1 and filtration [2, 4]: approximately 0.02 millimolar
